Tests used:
Myzus persicae [1] = assay: Myzus persicae spray test (MYZUPE); type: in vivo; conditions: 120 h; for Emax at 20 g/ha: MYZUPE, 5 dat, read-out: % efficacy; for pest or weed control at 500 g/ha / pest or weed control at 100 g/ha: foliar, Chinese cabbage leaf discs, after 5 days, read-out: efficacy
Procedure: Solvent: 78 parts by weight of acetone • • 1.5 parts by weight of dimethylformamide
(§1) Emulsifier: alkylaryl polyglycol ether
(§2) To produce a suitable active compound preparation, 1 part by weight of active compound is dissolved with the specified parts by weight of solvent and made up to the desired concentration with water containing an emulsifier concentration of 1000 ppm. To produce further test concentrations, the formulation is diluted with emulsifier-containing water.
Discs of Chinese cabbage leaves (Brassica pekinensis) infested by all stages of the green peach aphid (Myzus persicae) are sprayed with an active compound preparation of the desired concentration.
(§3) After 5 days, the efficacy in % is determined. 100% means that all the aphids have been killed; 0% means that no aphids have been killed.
(§4) Solvent: 78.0 parts by weight of acetone • • 1.5 parts by weight of dimethylformamide
After the desired period of time, the efficacy in % is determined. 100% means that all the aphids have been killed; 0% means that no aphids have been killed.

Nilaparvata lugens = Nilaparvata lugens spray test (NILALU); type: in vivo; conditions: 96 h, 4 dat, read-out: % efficacy
Procedure: (§5) Solvent: 52.5 parts by weight of acetone • 7 parts by weight of dimethylformamide
as §1
as §2, with “water. If the addition of ammonium salts or/and penetrants is required, these are each added in a concentration of 1000 ppm to the formulation solution.” for “water.”
Rice plants (Oryza sativa) are sprayed with an active compound preparation of the desired concentration and then populated with larvae of the brown planthopper (Nilaparvata lugens).
After the desired period of time, the efficacy in % is determined. 100% means that all of the planthoppers have been killed; 0% means that none of the planthoppers have been killed.

Ctenocephalides felis [2] = assay: Ctenocephalides felis oral test; type: in vivo; conditions: 100 ppm in citrated cattle blood, adult cat fleas, after 2 days
Procedure: Solvent: dimethyl sulfoxide To produce a suitable active compound preparation, 10 mg of active compound are mixed with 0.5 ml of dimethyl sulfoxide. Dilution with citrated cattle blood gives the desired concentration. About 20 unfed adult cat fleas (Ctenocephalides felis) are placed into a chamber which is closed at the top and bottom with gauze. A metal cylinder whose bottom end is closed with parafilm is placed onto the chamber. The cylinder contains the blood/active compound preparation, which can be imbibed by the fleas through the parafilm membrane. After 2 days, the kill in % is determined. 100% means that all of the fleas have been killed; 0% means that none of the fleas have been killed.

Ctenocephalides felis [3] = assay: Ctenocephalides felis in vitro contact test with adult cat fleas; type: in vivo; conditions: 5 μg/cm^2 (=500 g/ha), after 48 h
Procedure: For the coating of the test tubes, 9 mg of active compound are first dissolved in 1 ml of acetone p.a. and then diluted to the desired concentration with acetone p.a. 250 μl of the solution are distributed homogeneously on the inner walls and the base of a 25 ml glass tube by turning and rocking on an orbital shaker (rocking rotation at 30 rpm for 2 h). With 900 ppm of active compound solution and internal surface area 44.7 cm^2, given homogeneous distribution, an area-based dose of 5 μg/cm^2 is achieved.
After the solvent has evaporated off, the tubes are populated with 5-10 adult cat fleas (Ctenocephalides felis), sealed with a perforated plastic lid and incubated in a horizontal position at room temperature and ambient humidity. After 48 h, efficacy is determined. To this end, the tubes are stood upright and the fleas are knocked to the base of the tube. Fleas which remain motionless at the base or move in an uncoordinated manner are considered to be dead or moribund.
100% efficacy means that all the fleas were dead or moribund. 0% efficacy means that no fleas were harmed.

Lucilia cuprina = Lucilia cuprina test; type: in vivo; conditions: 100 ppm, L1 larvae, after 2 days
Procedure: Solvent: dimethyl sulfoxide To produce a suitable active compound preparation, 10 mg of active compound are mixed with 0.5 ml of dimethyl sulfoxide, and the concentrate is diluted with water to the desired concentration. About 20 L1 larvae of the Australian sheep blowfly (Lucilia cuprina) are transferred into a test vessel containing minced horsemeat and the active compound preparation of the desired concentration. After 2 days, the kill in % is determined. 100% means that all the larvae have been killed; 0% means that no larvae have been killed.

Nezara viridula = Nezara viridula spray test (NEZAVI); type: in vivo; conditions: 96 h, 4 dat, read-out: % efficacy
Procedure: as §5, §1
as §2, with “water. If the addition of ammonium salts or/and penetrants is required, these are each added in a concentration of 1000 ppm to the formulation solution.” for “water.”
Barley plants (Hordeum vulgare) infected with larvae of the Southern green shield bug (Nezara viridula) are sprayed with an active compound preparation of the desired concentration.
After the desired period of time, the efficacy in % is determined. 100% means that all of the shield bugs have been killed; 0% means that none of the shield bugs have been killed.

[4] = log P by HPLC on reversed-phase column (EEC Directive 79/831 Annex V.A8); type: physicochemical; conditions: reversed-phase C18 HPLC column, C 18 reversed phase, 55° C., pH 7.8, read-out: log P (neutral)
Excerpt: Called log P (neutral) in the table.

Phaedon cochleariae = Phaedon cochleariae spray test (PHAECO); type: in vivo; conditions: for efficacy: larvae on Chinese cabbage leaf discs, after 7 days; for Emax at 20 g/ha: Phaedon cochleariae, 168 h, PHAECO, 7 dat, read-out: % efficacy
Procedure: as §4, §1, §2
After 7 days, the efficacy in % is determined. 100% means that all the beetle larvae have been killed; 0% means that no beetle larvae have been killed.
After the desired period of time, the efficacy in % is determined. 100% means that all the beetle larvae have been killed; 0% means that no beetle larvae have been killed.

Myzus persicae [5] = assay: Myzus persicae oral test; type: in vivo; conditions: 120 h, after 5 days, read-out: efficacy
Procedure: Solvent: 100 parts by weight of acetone
To produce a suitable active compound preparation, 1 part by weight of active compound is dissolved with the stated parts by weight of solvent and made up to the desired concentration with water.
50 μl of the active compound preparation are transferred into microtitre plates and made up to a final volume of 200 μl with 150 μl of IPL41 insect medium (33%+15% sugar). Subsequently, the plates are sealed with parafilm, which a mixed population of green peach aphids (Myzus persicae) within a second microtitre plate is able to puncture and imbibe the solution.
as §3

Tetranychus urticae = Tetranychus urticae spray test, OP-resistant (TETRUR); type: in vivo; conditions: for efficacy / Emax at 100 g/ha: 100 g/ha; for efficacy: bean leaf discs, after 6 days; for Emax at 100 g/ha / Emax at 500 g/ha: Tetranychus urticae, 144 h, TETRUR, read-out: % efficacy; for Emax at 100 g/ha: 6 dat (comparative table); for Emax at 500 g/ha: 6 dat
Procedure: as §4, §1, §2
Discs of bean leaves (Phaseolus vulgaris) infested with all stages of the greenhouse red spider mite (Tetranychus urticae) are sprayed with an active compound preparation of the desired concentration.
After 6 days, the efficacy in % is determined. 100% means that all the spider mites have been killed; 0% means that no spider mites have been killed.
After the desired period of time, the efficacy in % is determined. 100% means that all the spider mites have been killed; 0% means that no spider mites have been killed.

Meloidogyne incognita = Meloidogyne incognita test; type: in vivo; conditions: 20 ppm, lettuce, after 14 days
Procedure: Solvent: 125.0 parts by weight of acetone To produce a suitable active compound preparation, 1 part by weight of active compound is mixed with the stated amount of solvent and the concentrate is diluted to the desired concentration with water. Vessels are filled with sand, active compound solution, an egg/larvae suspension of the southern root-knot nematode (Meloidogyne incognita) and lettuce seeds. The lettuce seeds germinate and the plants develop. The galls develop on the roots. After 14 days, the nematicidal efficacy in % is determined by the formation of galls. 100% means that no galls were found; 0% means that the number of galls on the treated plants corresponds to the untreated control.

Row | Structure (SMILES) | efficacy (kill in %) (Ctenocephalides felis [2]) | pest or weed control at 100 g/ha (Myzus persicae [1]) | pest or weed control at 4 ppm (Myzus persicae [5]) | nematicidal efficacy (formation of galls) (Meloidogyne incognita) | pest or weed control at 20 ppm (Myzus persicae [5]) | other results
1 | CCS(=O)(=O)c1ccc(N(C)C(C)=O)nc1-c1nc2cc(C(F)(F)F)ncc2n1C [Example No. 69 known from WO 2016/124557, reference compound] |  |  |  |  |  | Emax at 20 g/ha (Myzus persicae [1]): 0%; Emax at 4 g/ha (Nilaparvata lugens): 0%
2 | CCS(=O)(=O)c1ccc(NC(=O)NC)nc1-c1nc2cc(C(F)(F)F)ncc2n1C [Example I-4, 1-[5-Ethylsulfonyl-6-[3-methyl-6-(trifluoromethyl)imidazo[4,5-c]pyridin-2-yl]-2-pyridyl]-3-methylurea] | 100% |  |  |  |  | pest or weed control at 500 g/ha (Myzus persicae [1]): 90%; efficacy (Ctenocephalides felis [3]): 100%; efficacy (kill in %) (Lucilia cuprina): 100%; Emax at 20 g/ha (Nezara viridula): 100%; chromatographic logP [4]: 1.83; efficacy (Phaedon cochleariae; 500 g/ha): 100%
3 | CCS(=O)(=O)c1ccc(NC(=O)n2cc(Br)cn2)nc1-c1nc2cc(C(F)(F)F)ncc2n1C [Example I-13] |  | 90% | 90% |  |  | 
4 | CCS(=O)(=O)c1ccc(NC(=O)NCC[S+](C)[O-])nc1-c1nc2cc(C(F)(F)F)ncc2n1C (stereo not shown) [Example I-3] | 100% | 100% | 100% | 90% | 100% | efficacy (Tetranychus urticae): 100%
5 | CCS(=O)(=O)c1ccc(NC(=O)N2CCCC2)nc1-c1nc2cc(C(F)(F)F)ncc2n1C [Example I-14] |  | 90% | 100% |  |  | 
6 | CCS(=O)(=O)c1ccc(NC(C)=O)nc1-c1nc2cc(C(F)(F)F)ncc2n1C [reference compound] |  |  |  |  |  | Emax at 20 g/ha (Nezara viridula): 0%
7 | CCS(=O)(=O)c1ccc(NC(=O)NCCC#N)nc1-c1nc2cc(C(F)(F)F)ncc2n1C [Example I-2] | 100% |  | 100% | 100% | 100% | pest or weed control at 500 g/ha (Myzus persicae [1]): 90%
8 | CCS(=O)(=O)c1ccc(N(C)C(=O)NC)nc1-c1nc2cc(C(F)(F)F)ncc2n1C [Example I-12] |  | 90% |  |  |  | Emax at 20 g/ha (Myzus persicae [1]): 90%; Emax at 4 g/ha (Nilaparvata lugens): 90%
9 | CCC(=O)Nc1ccc(S(=O)(=O)CC)c(-c2nc3cc(C(F)(F)F)ncc3n2C)n1 [Example No. 13 known from WO 2016/124557, reference compound] |  |  |  |  |  | Emax at 100 g/ha (Tetranychus urticae): 0%; Emax at 500 g/ha (Tetranychus urticae): 70%; Emax at 20 g/ha (Phaedon cochleariae): 50%
10 | CCS(=O)(=O)c1ccc(NC(=O)NCCOC)nc1-c1nc2cc(C(F)(F)F)ncc2n1C [Example I-5] | 80% |  | 100% | 100% | 100% | pest or weed control at 500 g/ha (Myzus persicae [1]): 100%; efficacy (kill in %) (Lucilia cuprina): 100%
11 | CCNC(=O)Nc1ccc(S(=O)(=O)CC)c(-c2nc3cc(C(F)(F)F)ncc3n2C)n1 [Example I-1] | 100% |  |  | 100% |  | pest or weed control at 500 g/ha (Myzus persicae [1]): 90%; efficacy (Tetranychus urticae): 90%; Emax at 100 g/ha (Tetranychus urticae): 90%; Emax at 500 g/ha (Tetranychus urticae): 90%; efficacy (Phaedon cochleariae; 500 g/ha): 100%; Emax at 20 g/ha (Phaedon cochleariae): 83%
12 | CCS(=O)(=O)c1ccc(NC(=O)N(C)C)nc1-c1nc2cc(C(F)(F)F)ncc2n1C [Example I-15] |  | 90% | 100% | 100% |  | efficacy (Phaedon cochleariae; 100 g/ha): 100%
13 | CCS(=O)(=O)c1ccc(NC(=O)NCCSC)nc1-c1nc2cc(C(F)(F)F)ncc2n1C [Example I-6] |  | 90% | 100% |  | 100% | efficacy (Tetranychus urticae): 70%; efficacy (Phaedon cochleariae; 100 g/ha): 100%
14 | CCS(=O)(=O)c1ccc(NC(=O)NCCS(C)(=O)=O)nc1-c1nc2cc(C(F)(F)F)ncc2n1C [Example I-8] | 100% | 90% | 90% |  | 100% | efficacy (Tetranychus urticae): 100%
15 | CCS(=O)(=O)c1ccc(NC(=O)NC(C)C)nc1-c1nc2cc(C(F)(F)F)ncc2n1C [Example I-7] | 100% |  |  | 90% |  | 

Source: US11339155B2, “2-(het)aryl-substituted fused bicyclic heterocycle derivatives as pesticides” (Bayer CropScience Aktiengesellschaft, priority 2016, dated 2022)
